From patent US20230365556A1, “N-ACYL AMINO ACID COMPOUNDS AND METHODS OF USE” (Pliant Therapeutics, Inc., priority 2016, published 2023) come the findings set out here.

Sequence of αvβ1 integrin (αvβ1 expressing CHO cells) (P06756 31-889): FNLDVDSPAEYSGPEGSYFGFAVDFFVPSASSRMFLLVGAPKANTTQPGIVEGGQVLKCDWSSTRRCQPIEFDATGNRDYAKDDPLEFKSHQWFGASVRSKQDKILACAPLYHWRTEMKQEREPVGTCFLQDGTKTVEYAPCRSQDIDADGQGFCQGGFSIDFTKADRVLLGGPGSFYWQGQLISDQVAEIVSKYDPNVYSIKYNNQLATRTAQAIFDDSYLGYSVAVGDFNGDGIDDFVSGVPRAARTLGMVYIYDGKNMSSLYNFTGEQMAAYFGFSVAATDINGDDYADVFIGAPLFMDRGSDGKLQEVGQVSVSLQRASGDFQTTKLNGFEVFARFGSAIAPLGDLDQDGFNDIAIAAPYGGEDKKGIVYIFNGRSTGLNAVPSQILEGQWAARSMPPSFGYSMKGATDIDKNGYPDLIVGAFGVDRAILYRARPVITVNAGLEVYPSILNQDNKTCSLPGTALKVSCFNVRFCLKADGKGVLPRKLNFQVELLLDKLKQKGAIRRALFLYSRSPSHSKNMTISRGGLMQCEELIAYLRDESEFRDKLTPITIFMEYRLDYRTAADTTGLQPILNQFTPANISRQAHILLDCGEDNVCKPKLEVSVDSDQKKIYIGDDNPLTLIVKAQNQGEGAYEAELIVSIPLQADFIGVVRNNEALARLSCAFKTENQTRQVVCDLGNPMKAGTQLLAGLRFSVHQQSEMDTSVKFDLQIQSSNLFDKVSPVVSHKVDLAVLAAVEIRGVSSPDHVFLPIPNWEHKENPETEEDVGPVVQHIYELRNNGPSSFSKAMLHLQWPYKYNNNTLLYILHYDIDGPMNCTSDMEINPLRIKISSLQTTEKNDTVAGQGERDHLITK
Sequence of αvβ1 integrin (αvβ1 expressing CHO cells) (P06756 891-1048 partner): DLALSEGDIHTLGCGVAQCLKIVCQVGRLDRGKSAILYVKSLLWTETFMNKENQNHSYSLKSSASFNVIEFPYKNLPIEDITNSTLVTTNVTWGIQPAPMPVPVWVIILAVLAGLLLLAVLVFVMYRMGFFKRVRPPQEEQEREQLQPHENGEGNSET
Sequence of αvβ1 integrin (αvβ1 expressing CHO cells) (P05556 21-798): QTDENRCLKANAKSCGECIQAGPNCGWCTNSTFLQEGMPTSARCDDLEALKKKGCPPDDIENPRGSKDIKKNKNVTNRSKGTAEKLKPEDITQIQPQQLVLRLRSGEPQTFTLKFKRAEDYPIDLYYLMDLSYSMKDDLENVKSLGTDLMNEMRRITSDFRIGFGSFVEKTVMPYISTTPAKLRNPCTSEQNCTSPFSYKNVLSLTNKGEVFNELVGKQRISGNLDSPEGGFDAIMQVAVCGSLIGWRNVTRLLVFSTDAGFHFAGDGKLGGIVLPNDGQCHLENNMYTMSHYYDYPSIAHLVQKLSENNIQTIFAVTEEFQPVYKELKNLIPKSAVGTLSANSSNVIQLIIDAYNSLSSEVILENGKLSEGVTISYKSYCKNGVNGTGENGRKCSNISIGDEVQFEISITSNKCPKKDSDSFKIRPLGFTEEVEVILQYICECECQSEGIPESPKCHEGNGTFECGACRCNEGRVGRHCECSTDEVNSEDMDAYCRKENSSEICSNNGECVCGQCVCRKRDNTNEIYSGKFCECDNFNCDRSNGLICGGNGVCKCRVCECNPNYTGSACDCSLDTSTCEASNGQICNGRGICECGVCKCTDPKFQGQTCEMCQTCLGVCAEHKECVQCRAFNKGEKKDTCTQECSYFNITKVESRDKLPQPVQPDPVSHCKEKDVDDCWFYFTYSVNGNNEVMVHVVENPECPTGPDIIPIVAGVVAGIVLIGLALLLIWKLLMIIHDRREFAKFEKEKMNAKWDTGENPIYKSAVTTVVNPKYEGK

The first assay has as its target αvβ1 integrin (αvβ1 expressing CHO cells) (Homo sapiens (Human), UniProt P05556+P06756). Nature of the assay: Cell adhesion assay: inhibition of αvβ1 expressing CHO cells attaching to TGFβ1LAP. Format: cell-based. To be noted: 1 h at 37° C., crystal violet absorbance 595 nm, read-out: αvβ1 Inhibition IC50 (nM)-range. How it is done:
Example B1—Cell Adhesion Assay
In order to determine the potency, the compounds were assessed for their ability to inhibit αvβ1 expressing CHO cells attach to TGFβ1LAP. Microplates were coated overnight with 2 ug/ml TGFβ1LAP at 4° C., and blocked with 2% BSA/PBS for 30 min before the assay. Cells were detached and washed in PBS. After that the cells were resuspended in DMEM at 1.0×10^6 cells/ml, fifty microliter of cell suspension and fifty microliter of compound solution were added into the plate. The plates were incubated for one hour at 37° C. in humidified 5% carbon dioxide. Non-adherent cells were removed by centrifugation top side down at 58 g for 5 min. The attached cells were fixed and stained with 0.5% crystal violet (in 20% methanol and 1% formaldehyde) and the wells washed with PBS. Crystal violet was dissolved in 2% Triton-X in PBS. The relative number of cells in each well was evaluated by the absorbance at 595 nm in a microplate reader (Tecan). IC50 values were determined by non-linear regression with four parameters (Graphpad Prism 7.01, Y=Bottom+(Top−Bottom)/(1+10^((Log IC50−X)*HillSlope)).
The compounds tested were compound samples prepared according to procedures described in the Synthetic Examples section, with the stereochemical purity as indicated in the Examples indicated for Example or Compound No. 1-62. The compounds tested were predominantly S-configuration at the alpha carbon of the amino acid scaffold, except for compounds 123, 124, and 125 which were predominantly R-configuration at the alpha carbon of the amino acid scaffold. “Example or Compound No.” in Table B-1 refers to the compound illustrated in the examples for Example or Compound Nos. 1-62 (the compounds of Examples 1-62 are labeled as Compounds 1-62 in Table 1). “Example or Compound No.” in Table B-1 refers to the compound number as indicated in Table 1 or Table 2 for Example or Compound Nos. 63-126.
For the compound `O=C(N[C@@H](Cc1ccc(O[C@H]2CC[C@H](Nc3ccccn3)CC2)cc1)C(=O)O)c1c(Cl)cccc1Cl` [Example 39, (2S)-2-[(2,6-dichlorobenzoyl)amino]-3-[4-[4-trans-(2-pyridylamino)cyclohexoxy]phenyl]propanoic acid], the half-inhibitory concentration (IC50) was greater than 1000 nM.

Take `O=C(N[C@@H](Cc1ccc(OCCCc2ccc3c(n2)NCCC3)cc1)C(=O)O)c1ccc2cn[nH]c2c1` [Example 40, (2S)-2-(1H-indazole-6-carbonylamino)-3-[4-[3-(5,6,7,8-tetrahydro-1,8-naphthyridin-2-yl)propoxy]phenyl]propanoic acid]: the IC50 is less than 50 nM.

In the case of `Cn1ncc2ccc(C(=O)N[C@@H](Cc3ccc(OCCCc4ccc5c(n4)NCCC5)cc3)C(=O)O)cc21` [Example 41, (2S)-2-[(1-methylindazole-6-carbonyl)amino]-3-[4-[3-(5,6,7,8-tetrahydro-1,8-naphthyridin-2-yl)propoxy]phenyl]propanoic acid], the IC50 was less than 50 nM.

As for `O=C(N[C@@H](Cc1ccc(OCCCc2ccc3c(n2)NCCC3)cc1)C(=O)O)c1ccc2[nH]ncc2c1` [Example 42, (2S)-2-(1H-indazole-5-carbonylamino)-3-[4-[3-(5,6,7,8-tetrahydro-1,8-naphthyridin-2-yl)propoxy]phenyl]propanoic acid], the IC50 was less than 50 nM.

Turning to `Cn1ncc2cc(C(=O)N[C@@H](Cc3ccc(OCCCc4ccc5c(n4)NCCC5)cc3)C(=O)O)ccc21` [Example 43, (2S)-2-[(1-methylindazole-5-carbonyl)amino]-3-[4-[3-(5,6,7,8-tetrahydro-1,8-naphthyridin-2-yl)propoxy]phenyl]propanoic acid], the IC50 was less than 50 nM.

`Cn1cc2ccc(C(=O)N[C@@H](Cc3ccc(OCCCc4ccc5c(n4)NCCC5)cc3)C(=O)O)cc2n1` [Example 44, (2S)-2-[(2-methylindazole-6-carbonyl)amino]-3-[4-[3-(5,6,7,8-tetrahydro-1,8-naphthyridin-2-yl)propoxy]phenyl]propanoic acid]: the IC50 was less than 50 nM.

Regarding `Cn1cc2cc(C(=O)N[C@@H](Cc3ccc(OCCCc4ccc5c(n4)NCCC5)cc3)C(=O)O)ccc2n1` [Example 45, (2S)-2-[(2-methylindazole-5-carbonyl)amino]-3-[4-[3-(5,6,7,8-tetrahydro-1,8-naphthyridin-2-yl)propoxy]phenyl]propanoic acid], the IC50 is less than 50 nM.

Turning to `O=C(N[C@@H](Cc1ccc(OCC2(CNc3ccccn3)CC2)cc1)C(=O)O)c1c(Cl)cccc1Cl` [Example 46, (2S)-2-((2,6-dichlorobenzoyl)amino)-3-(4-((1-((2-pyridylamino)methyl)cyclopropyl)methoxy)phenyl)propanoic acid], the IC50 fell in the range of 50 to 250 nM.

Take `O=C(N[C@@H](CCCCCCCCNC1=NCCNC1)C(=O)O)c1c(Cl)cccc1Cl` [Example 47, (S)-2-(2,6-dichlorobenzamido)-10-((3,4,5,6-tetrahydropyrazin-2-yl)amino)decanoic acid]: the IC50 was greater than 1000 nM.

Regarding `O=C(N[C@@H](CCCCCCCCNC1=NCCO1)C(=O)O)c1c(Cl)cccc1Cl` [Example 48, (S)-2-(2,6-dichlorobenzamido)-10-((4,5-dihydrooxazol-2-yl)amino)decanoic acid], the IC50 is greater than 1000 nM.

As for `O=C(N[C@@H](CCCCCCCCNC1=NCCS1)C(=O)O)c1c(Cl)cccc1Cl` [Example 49, (S)-2-(2,6-dichlorobenzamido)-10-((4,5-dihydrothiazol-2-yl)amino)decanoic acid], the half-maximal inhibitory concentration (IC50) was 50 to 250 nM.

As for `CN1C(=O)CN=C1NCCCCCCCC[C@H](NC(=O)c1c(Cl)cccc1Cl)C(=O)O` [Example 50, (S)-2-(2,6-dichlorobenzamido)-10-((1-methyl-5-oxo-4,5-dihydro-1H-imidazol-2-yl)amino)decanoic acid], the 50% inhibitory concentration (IC50) is greater than 1000 nM.

Consider `O=C(N[C@@H](CCCCCCCCNC1=NCCCO1)C(=O)O)c1c(Cl)cccc1Cl` [Example 51, (S)-2-(2,6-dichlorobenzamido)-10-((5,6-dihydro-4H-1,3-oxazin-2-yl)amino)decanoic acid], for which the IC50 is greater than 1000 nM.

Turning to `CN1CC(NCCCCCCCC[C@H](NC(=O)c2c(Cl)cccc2Cl)C(=O)O)=NCC1=O` [Example 52, (S)-2-(2,6-dichlorobenzamido)-10-((4-methyl-5-oxo-3,4,5,6-tetrahydropyrazin-2-yl)amino)decanoic acid], the IC50 is greater than 1000 nM.

For the compound `CN1CCN=C(NCCCCCCCC[C@H](NC(=O)c2c(Cl)cccc2Cl)C(=O)O)C1=O` [Example 53, (S)-2-(2,6-dichlorobenzamido)-10-((4-methyl-3-oxo-3,4,5,6-tetrahydropyrazin-2-yl)amino)decanoic acid], the IC50 is greater than 1000 nM.

As for `O=C(N[C@@H](CCCCCCCCNC1=NCCCS1)C(=O)O)c1c(Cl)cccc1Cl` [Example 54, (S)-2-(2,6-dichlorobenzamido)-10-((5,6-dihydro-4H-1,3-thiazin-2-yl)amino)decanoic acid], the IC50 fell in the range of 250 to 1000 nM.

`CC(=O)N1CCN=C(NCCCCOc2ccc(C[C@H](NC(=O)c3c(Cl)cccc3Cl)C(=O)O)cc2)C1` [Example 55, (S)-3-(4-(4-((4-acetyl-3,4,5,6-tetrahydropyrazin-2-yl)amino)butoxy)phenyl)-2-(2,6-dichlorobenzamido)propanoic acid]: the IC50 was in the range of 50 to 250 nM.

As to `O=C(N[C@@H](Cc1ccc(OCCCCNC2=NCCNC2)cc1)C(=O)O)c1c(Cl)cccc1Cl` [Example 56, (S)-2-(2,6-dichlorobenzamido)-3-(4-(4-((3,4,5,6-tetrahydropyrazin-2-yl)amino)butoxy)phenyl)propanoic acid], the IC50 fell in the range of 250 to 1000 nM.

For `CN1C(=O)CN=C1NCCCCOc1ccc(C[C@H](NC(=O)c2c(Cl)cccc2Cl)C(=O)O)cc1` [Example 57, (S)-2-(2,6-dichlorobenzamido)-3-(4-(4-((1-methyl-5-oxo-4,5-dihydro-1H-imidazol-2-yl)amino)butoxy)phenyl)propanoic acid], the half-maximal inhibitory concentration (IC50) is greater than 1000 nM.

In the case of `CN1CC(NCCCCOc2ccc(C[C@H](NC(=O)c3c(Cl)cccc3Cl)C(=O)O)cc2)=NCC1=O` [Example 58, (S)-2-(2,6-dichlorobenzamido)-3-(4-(4-((4-methyl-5-oxo-3,4,5,6-tetrahydropyrazin-2-yl)amino)butoxy)phenyl)propanoic acid], the IC50 was greater than 1000 nM.

Take `O=C(N[C@@H](Cc1ccc(OCCCCNC2=NCCCO2)cc1)C(=O)O)c1c(Cl)cccc1Cl` [Example 59, (S)-2-(2,6-dichlorobenzamido)-3-(4-(4-((5,6-dihydro-4H-1,3-oxazin-2-yl)amino)butoxy)phenyl)propanoic acid]: the IC50 is greater than 1000 nM.

With `O=C(N[C@@H](Cc1ccc(OCCCCNC2=NCCCS2)cc1)C(=O)O)c1c(Cl)cccc1Cl` [Example 60, (S)-2-(2,6-dichlorobenzamido)-3-(4-(4-((5,6-dihydro-4H-1,3-thiazin-2-yl)amino)butoxy)phenyl)propanoic acid], the IC50 is less than 50 nM.

Regarding `O=C(N[C@@H](Cc1ccc(OCCCCNC2=NCCO2)cc1)C(=O)O)c1c(Cl)cccc1Cl` [Example 61, (S)-2-(2,6-dichlorobenzamido)-3-(4-(4-((4,5-dihydrooxazol-2-yl)amino)butoxy)phenyl)propanoic acid], the IC50 was 50 to 250 nM.

With `O=C(N[C@@H](Cc1ccc(OCCCCNC2=NCCS2)cc1)C(=O)O)c1c(Cl)cccc1Cl` [Example 62, (S)-2-(2,6-dichlorobenzamido)-3-(4-(4-((4,5-dihydrothiazol-2-yl)amino)butoxy)phenyl)propanoic acid], the IC50 is less than 50 nM.

For the next assay, the target named is recombinant human integrin αvβ1 (Homo sapiens (Human), UniProt P05556+P06756). As to the kind of experiment: Solid phase integrin αvβ1 binding assay (fibronectin). The settings on record: recombinant human integrin αvβ1 coated plate, recombinant fibronectin 2 ug/ml, 2 hours at 25° C., read-out: αvβ1 Inhibition IC50 (nM)-range. How it is done: Example B2—Solid Phase Integrin αvβ1 Binding Assay
Sequence of recombinant human integrin αvβ1 (P06756 31-889): as the sequence (P06756 31-889) above
Sequence of recombinant human integrin αvβ1 (P06756 891-992 partner): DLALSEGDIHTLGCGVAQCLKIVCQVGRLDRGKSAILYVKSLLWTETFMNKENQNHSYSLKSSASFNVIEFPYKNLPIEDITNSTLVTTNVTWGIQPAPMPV
Sequence of recombinant human integrin αvβ1 (P05556 21-728): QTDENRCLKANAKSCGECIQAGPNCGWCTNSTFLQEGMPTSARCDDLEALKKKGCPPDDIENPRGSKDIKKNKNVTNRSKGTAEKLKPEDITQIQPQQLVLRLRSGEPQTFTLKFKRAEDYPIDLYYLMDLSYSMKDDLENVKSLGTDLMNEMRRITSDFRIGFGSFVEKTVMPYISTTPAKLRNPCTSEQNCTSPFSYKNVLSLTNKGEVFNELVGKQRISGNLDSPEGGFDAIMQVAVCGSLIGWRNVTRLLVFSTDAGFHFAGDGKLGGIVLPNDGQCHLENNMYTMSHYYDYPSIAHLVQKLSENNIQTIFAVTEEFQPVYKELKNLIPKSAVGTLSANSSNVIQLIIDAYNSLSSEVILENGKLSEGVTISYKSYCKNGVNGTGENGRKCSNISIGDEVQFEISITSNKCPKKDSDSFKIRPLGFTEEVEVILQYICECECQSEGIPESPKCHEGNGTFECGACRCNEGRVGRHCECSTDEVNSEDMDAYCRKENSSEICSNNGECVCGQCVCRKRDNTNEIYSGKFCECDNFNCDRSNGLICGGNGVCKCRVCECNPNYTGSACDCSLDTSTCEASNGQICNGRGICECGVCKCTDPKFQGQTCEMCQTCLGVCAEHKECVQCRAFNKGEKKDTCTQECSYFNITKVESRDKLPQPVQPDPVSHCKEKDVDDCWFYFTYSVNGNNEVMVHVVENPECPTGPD
Microplates were coated with recombinant human integrin αvβ1 (2 ug/ml) in PBS (100 ul/well 4° C., overnight). The coating solution was removed, washed with PBS. Plate was blocked with 200 ul/well of Block Buffer (2% BSA in PBS) at 37° C. for 1 h. Dilutions of testing compounds and recombinant fibronectin (2 ug/ml) in binding and washing buffer (50 mM Tris-HCl, ph7.5; 0.1% BSA, 1 mM MnCl2; NaCl 150 mM; 0.02% Tween-20; 1 mM CaCl2); 1 mM MgCl2) were added. The plate was incubated for 2 hours at 25° C., washed, and incubated for 1 hour with Biotin-Anti-fibronectin. Bound antibody was detected by peroxidase-conjugated streptavidin. The IC50 values for testing compounds were calculated by a four-parameter logistic regression.
The compounds tested were compound samples prepared according to procedures described in the Synthetic Examples section, with the stereochemical purity as indicated in the Examples. The compounds tested were predominantly S-configuration at the alpha carbon of the amino acid scaffold, except for compounds 123, 124, and 125 which were predominantly R-configuration at the alpha carbon of the amino acid scaffold.
`O=C(NC(CCCCCCCc1ccc2c(n1)NCCC2)C(=O)O)c1c(Cl)cccc1Cl` (stereo not shown) [Compound 65, 2-(2,6-dichlorobenzamido)-9-(5,6,7,8-tetrahydro-1,8-naphthyridin-2-yl)nonanoic acid]: the IC50 is less than 50 nM.
